Results as given in patent US8518944B2, “Compounds as casein kinase inhibitors” (Pfizer Inc., priority 2009, dated 2013).
Counter-ions that a name gives are not always drawn.

Columns and labels:
[1] = biological target: CK1δ (Homo sapiens, UniProt P48730); test: CK1δ kinase assay (Kinase-Glo luminescence); format: biochemical; conditions: ATP 10 μM, CK1δ enzyme 2 nM, peptide substrate 42 μM, 25° C., 85 minutes; values marked * are geometric mean of 5-16 determinations; read-out: CKIδ IC50 (nM), geometric mean of 2-4 determinations
Procedure: The CK1δ kinase assay was performed in a standard buffer containing ATP at 10 μM, CK1δ enzyme at 2 nM, and the peptide substrate PLSRTLpSVASLPGL at 42 μM. The reaction was incubated at 25° C. for 85 minutes. Enzyme inhibition was performed in the presence of either 1 μL of CK1δ inhibitor, or 4% DMSO. Detection of luminescent output on a PerkinElmer EnVision plate reader (PerkinElmer, Waltham, Mass.) was performed as described for the Kinase-Glo Assay (Promega).

[2] = biological target: CK1ε wild type enzyme (Homo sapiens, UniProt P49674); test: CK1ε kinase assay (Kinase-Glo luminescence); format: biochemical; conditions: ATP 10 μM, CK1ε wild type enzyme 2.5 nM, peptide substrate 42 μM, 25° C., 70 minutes; values marked * are geometric mean of 5-16 determinations; read-out: CKIε IC50 (nM), geometric mean of 2-4 determinations
Procedure: The CK1ε kinase assay was performed in a standard buffer containing ATP at 10 μM, CK1ε wild type enzyme at 2.5 nM, and 42 μM concentration of the peptide substrate PLSRTLpSVASLPGL (Flotow et al., 1990). The reaction was incubated at 25° C. for 70 minutes. Enzyme inhibition was measured in the presence of 1 μL of the CK1ε inhibitor, or 4% DMSO. Detection was carried out as described for the Kinase-Glo Assay (Promega). Luminescent output was measured on the PerkinElmer EnVision plate reader (PerkinElmer, Waltham, Mass.).

Chain of CK1ε wild type enzyme (P49674 whole entry): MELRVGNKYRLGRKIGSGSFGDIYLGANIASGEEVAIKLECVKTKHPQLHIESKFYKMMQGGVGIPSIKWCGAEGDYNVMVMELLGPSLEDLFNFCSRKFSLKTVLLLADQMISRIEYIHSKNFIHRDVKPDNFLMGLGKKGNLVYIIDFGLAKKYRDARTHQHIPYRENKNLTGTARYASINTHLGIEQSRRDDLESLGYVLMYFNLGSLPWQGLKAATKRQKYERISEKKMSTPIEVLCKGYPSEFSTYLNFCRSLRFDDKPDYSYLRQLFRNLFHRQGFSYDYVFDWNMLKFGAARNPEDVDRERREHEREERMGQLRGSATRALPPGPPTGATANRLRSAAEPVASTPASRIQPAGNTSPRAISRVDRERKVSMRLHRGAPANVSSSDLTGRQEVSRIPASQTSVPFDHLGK
Chain of CK1δ (P48730 whole entry): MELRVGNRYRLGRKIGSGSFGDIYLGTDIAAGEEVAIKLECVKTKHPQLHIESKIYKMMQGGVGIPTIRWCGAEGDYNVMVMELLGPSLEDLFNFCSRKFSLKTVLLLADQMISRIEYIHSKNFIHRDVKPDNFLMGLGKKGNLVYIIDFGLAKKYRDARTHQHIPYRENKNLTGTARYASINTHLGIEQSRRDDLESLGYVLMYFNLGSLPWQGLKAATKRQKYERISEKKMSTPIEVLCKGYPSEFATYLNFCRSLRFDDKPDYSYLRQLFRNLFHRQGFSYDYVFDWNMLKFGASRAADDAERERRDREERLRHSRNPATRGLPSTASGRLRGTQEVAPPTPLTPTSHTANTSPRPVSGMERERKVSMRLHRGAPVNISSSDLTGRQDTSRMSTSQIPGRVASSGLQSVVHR

Compound | IC50 [1] [nM] | IC50 [2] [nM]
Cn1nccc1CN1CCC(n2cnc(-c3ccc(F)cc3)c2-c2ccnc(N)n2)CC1 [Example 20, 4-[4-(4-fluorophenyl)-1-{1-[(1-methyl-1H-pyrazol-5-yl)methyl]piperidin-4-yl}-1H-imidazol-5-yl]pyrimidin-2-amine, trifluoroacetate salt] | 42.8 | 244
Nc1nccc(-c2c(-c3ccc(F)cc3)ncn2C2CN(Cc3ncccn3)C2)n1 [Example 1, 4-{4-(4-Fluorophenyl)-1-[1-(pyrimidin-2-ylmethyl)azetidin-3-yl]-1H-imidazol-5-yl}pyrimidin-2-amine] | 163 | 536
COc1cc(CN2CCC(n3cnc(-c4ccc(F)cc4)c3-c3ccnc(N)n3)CC2)ccn1 [Example 25, 4-[4-(4-fluorophenyl)-1-{1-[(2-methoxypyridin-4-yl)methyl]piperidin-4-yl}-1H-imidazol-5-yl]pyrimidin-2-amine, trifluoroacetate salt] | 84.3 | 393
Fc1ccc(-c2ncn(C3CCN(Cc4ccon4)C3)c2-c2ccncn2)cc1 (stereo not shown) [Example 8, 4-{4-(4-Fluorophenyl)-1-[1-(isoxazol-3-ylmethyl)pyrrolidin-3-yl]-1H-imidazol-5-yl}pyrimidine] | 211 | 617
Nc1nccc(-c2c(-c3ccc(F)cc3)ncn2C2CCN(Cc3ccon3)C2)n1 (stereo not shown) [Example 7, 4-{4-(4-Fluorophenyl)-1-[1-(isoxazol-3-ylmethyl)pyrrolidin-3-yl]-1H-imidazol-5-yl}pyrimidin-2-amine] | 67.8 | 193
Nc1nccc(-c2c(-c3ccc(F)cc3)ncn2C2CCN(Cc3ccon3)CC2)n1 [Example 4, 4-{4-(4-Fluorophenyl)-1-[1-(isoxazol-3-ylmethyl)piperidin-4-yl]-1H-imidazol-5-yl}pyrimidin-2-amine] | < 4.17 | 18.9
CNc1nccc(-c2c(-c3ccc(F)cc3)ncn2C2CCN(Cc3ccon3)CC2)n1 [Example 5, 4-{4-(4-Fluorophenyl)-1-[1-(isoxazol-3-ylmethyl)piperidin-4-yl]-1H-imidazol-5-yl}-N-methylpyrimidin-2-amine] | 6.86 | 32.3
Nc1nccc(-c2c(-c3ccc(F)cc3)ncn2C2CCN(Cc3ccnnc3)CC2)n1 [Example 23, 4-{4-(4-fluorophenyl)-1-[1-(pyridazin-4-ylmethyl)piperidin-4-yl]-1H-imidazol-5-yl}pyrimidin-2-amine, trifluoroacetate salt] | 8.51 | 34.8

Further lines, results first:

IC50 [1] [nM] | IC50 [2] [nM] | Compound
91.6 | 266 | Cc1cccc(CN2CCC(n3cnc(-c4ccc(F)cc4)c3-c3ccnc(N)n3)C2)n1 (stereo not shown) [Example 30, 4-[4-(4-fluorophenyl)-1-{1-[(6-methylpyridin-2-yl)methyl]pyrrolidin-3-yl}-1H-imidazol-5-yl]pyrimidin-2-amine]
17.6 | 83.2 | Cc1ncc(CN2CCC(n3cnc(-c4ccc(F)cc4)c3-c3ccnc(N)n3)CC2)cn1 [Example 27, 4-[4-(4-fluorophenyl)-1-{1-[(2-methylpyrimidin-5-yl)methyl]piperidin-4-yl}-1H-imidazol-5-yl]pyrimidin-2-amine, trifluoroacetate salt]
76.6 | 211 | Nc1nccc(-c2c(-c3ccc(F)cc3)ncn2C2CCN(Cc3ccncc3)C2)n1 (stereo not shown) [Example 34, 4-{4-(4-fluorophenyl)-1-[1-(pyridin-4-ylmethyl)pyrrolidin-3-yl]-1H-imidazol-5-yl}pyrimidin-2-amine]
55.8 | 158 | Nc1nccc(-c2c(-c3ccc(F)cc3)ncn2C2CCN(Cc3ccnc4cccnc34)C2)n1 (stereo not shown) [Example 38, 4-{4-{4-fluorophenyl)-1-[1-(1,5-naphthyridin-4-ylmethyl)pyrrolidin-3-yl]-1H-imidazol-5-yl}pyrimidin-2-amine]
55.1 | 140 | Cc1cc(CN2CCC(n3cnc(-c4ccc(F)cc4)c3-c3ccnc(N)n3)C2)no1 (stereo not shown) [Example 33, 4-[4-(4-fluorophenyl)-1-{1-[(5-methylisoxazol-3-yl)methyl]pyrrolidin-3-yl}-1H-imidazol-5-yl]pyrimidin-2-amine]
61.1 | 150 | Cc1ncccc1CN1CCC(n2cnc(-c3ccc(F)cc3)c2-c2ccnc(N)n2)C1 (stereo not shown) [Example 32, 4-[4-(4-fluorophenyl)-1-{1-[(2-methylpyridin-3-yl)methyl]pyrrolidin-3-yl}-1H-imidazol-5-yl]pyrimidin-2-amine]
